Test system: T1, Hno (6-hydroxynicotine oxidase), recombinant His-tagged
T1 construct: N-terminal His tag (pETDuet-1), E. coli BL21 (DE3); FAD-containing; about 50 kDa on SDS-PAGE
Experiment: UV-visible spectrophotometry at […] nm (6-hydroxypseudooxynicotine formation)
Format: biochemical, Agrobacterium tumefaciens
Settings: 37 °C, pH 9.2, 100 mM glycine-NaOH buffer; O2 as electron acceptor; read-out: apparent K m

Structure (SMILES): CN1CCC[C@H]1c1ccc(O)nc1 [6-hydroxynicotine]
- Km: 67 ± 1 µM
